Patent US9943501B2 (KOJUN JAPAN CO., LTD., priority 2014, dated 2018)
Entries after “also recorded” stand apart in the source; their conditions may differ.

Legend:
[1] = tested on: liver (hepatocytes) of C57BL/6J mice fed with a high-fat diet; assay: Influence of administration on liver tissue (histopathological examination); format: in vivo, mouse; conditions: 12 weeks, high-fat diet
Text: In Example 13, the liver was collected during the collection of fat tissues from each individual and histopathologically examined. The findings from the histopathological examination were as described below.
For the individuals of the normal group, the deposition of fat droplets was not observed in the hepatocytes, whereas only the very mild infiltration of inflammatory cells was observed.

[2] = biological target: T1, human-derived PPARγ ligand-binding domain (Homo sapiens, UniProt P37231); assay: PPARγ activation test (GAL4 chimera / luciferase reporter in CV-1 cells); format: cell-based; conditions: for PPARγ ligand activity, ratio (%) of the activity of each synthesized product to the activity of the control substance (DMSO): control = 100
T1 construct: expressed in transfected cells; host or cells: CV-1 cells (African green monkey kidney-derived)
T1 sequence (P37231 238-503 limits assumed): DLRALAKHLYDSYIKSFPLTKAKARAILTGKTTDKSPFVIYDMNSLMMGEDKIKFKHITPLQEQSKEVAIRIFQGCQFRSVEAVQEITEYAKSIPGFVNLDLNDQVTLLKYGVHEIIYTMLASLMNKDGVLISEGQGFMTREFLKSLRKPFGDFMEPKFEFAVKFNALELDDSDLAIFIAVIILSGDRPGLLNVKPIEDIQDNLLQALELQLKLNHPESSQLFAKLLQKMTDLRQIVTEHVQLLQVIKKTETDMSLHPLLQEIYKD
Description: A measurement method for the PPAR activation test in Examples below were conducted as described below.
(1) PPARγ Activation Test
A plasmid pM-PPARγ for the expression of a chimeric protein composed of a human-derived PPARγ ligand-binding domain and a DNA-binding domain of a yeast-derived GAL4 transcription factor, and a plasmid p4×UASg-tk-luc containing a Cypridina-derived luciferase structural gene linked downstream of a GAL4 responsive sequence designed such that its expression was controlled by this chimeric protein, were prepared. Also, a Renilla-derived luciferase expression plasmid pRL-CMV having a viral expression promoter for constitutive intracellular expression was prepared as a plasmid for the correction of transfection efficiency. On the other hand, DMEM containing 10% FBS was used as a medium for CV-1 cells (African green monkey kidney-derived). The CV-1 cells were seeded at 4.5×10^5 cells over a 100-mm Petri dish and cultured in an incubator at 37° C. in a 5% CO2 environment.
(1-2) Transformation of CV-1 Cell
The CV-1 cells thus cultured for 24 hours were cotransfected with 2.0 μg of pM-PPARγ, 4.0 μg of p4×UASg-tk-luc, and 0.04 μg of pRL-CMV to transform the CV-1 cells. The transformation was carried out by the liposome method using LipofectAMINE(R) Reagent (a product of Invitrogen Corp.). After the transformation operation, the cells were cultured at 37° C. for 3.5 hours in a 5% CO2 environment.
(1-3) Addition of Test Sample
The CV-1 cells thus incubated were recovered by trypsin treatment, and […] thereof was inoculated at a concentration of 1×10^5 cells/mL to a 96-well plate. Each test sample was diluted with DMEM containing 4% FBS to adjust its concentration to twice the final concentration, and […] thereof was added to the 96-well plate mentioned above. DMSO was used as a control substance. After the addition of the test sample or the control substance (DMSO), the mixture was incubated at 37° C. for 24 hours in a 5% CO2 environment.
(1-4) Measurement of Luciferase Activity
The luciferase activity was measured using Dual-Luciferase(R) Reporter Assay System (a product of Promega K.K.). The culture solution was removed from the 96-well plate. The cells were washed with PBS(−), and moisture was removed therefrom using a paper towel. To the cells, […] of a cell lysis solution (Passive Lysis Buffer) was added, and the 96-well plate was shaken for 15 minutes. The cell extract was transferred at […] to a 96-well luminoplate. A luminescent substrate solution was added thereto at […]. The luminescence intensity based on the luciferase was measured for a measurement time set to 10 seconds using a luminometer (Micro Lumat Plus, a product of Berthold Japan Co., Ltd.).
The PPARγ-activating effect of the test sample was evaluated on the basis of a ratio (%) relative to controls. In order to correct transfection efficiency, the measured Cypridina luciferase activity value (A) was divided by the measured Renilla luciferase activity value (B) to determine a value (A/B). The average A/B value of the control group was calculated and defined as 100. The A/B value of the test sample was calculated, and the ratio (%) of this value to the average value of the controls was used as the ability of the test sample to activate PPARγ.
Their PPARγ ligand activity was measured in the same way as in Example 7 except that the incubation time after the test sample addition was set to 48 hours. The values shown in the table below and the ordinate of the drawing depict the ratio (%) of the activity of each synthesized product to the activity of the control substance (DMSO). In Table 1 and FIG. 13, these various butenolide compounds used as test samples were each indicated by the functional group of R^2 in the formula (1).

[3] = tested on: UCP-1 gene; assay: Measurement of UCP-1 gene expression level in mesenchymal cell line 10T1/2; format: cell-based; conditions: 10T1/2 cells; 100 μg/mL; 24 hours; FIG. 11
Text: Mitochondrial uncoupling proteins (or uncoupling proteins: UCPs) have the function of uncoupling oxidative phosphorylation reaction in the mitochondrial inner membrane to consume the energy as heat. Among them, UCP-1 is specifically expressed in brown fat cells that produce heat by burning fat. In recent years, particular synthetic PPARγ agonists have been reported to convert white fat cells working to store fat to brown fat cells working to burn fat (H. Ohno et al, Cell metabolism, 2012, Vol. 15, pp. 395-404).
The test was conducted as follows: a mesenchymal cell line 10T1/2 was inoculated at 1×10^4 cells/mL to a 12-well plate. The cells were cultured until confluent. Then, the fraction of peak 5 (5H4PB) was added thereto such that its final concentration was 100 μg/mL. DMSO was used as a control substance. Twenty-four hours after the sample addition, mRNA was recovered from the cells, and the mRNA level was determined. The mRNA quantification was carried out using LightCycler(R) (Roche Applied Science). The ordinate of the drawing depicts the ratio of the UCP-1 expression level for the fraction of peak 5 to the UCP-1 expression level for the control substance (DMSO). […] The increased expression level of UCP-1 indicates enhanced heat production from lipids.

[4] = test sample concentration 0.032 μg/mL, incubation 48 hours
[5] = test sample concentration 0.08 μg/mL, incubation 48 hours
[6] = test sample concentration 0.16 μg/mL, incubation 48 hours
[7] = test sample concentration 0.4 μg/mL, incubation 48 hours
[8] = test sample concentration 0.8 μg/mL, incubation 48 hours, * = twice or more vs control, p<0.05
[9] = test sample concentration 2 μg/mL, incubation 48 hours, * = twice or more vs control, p<0.05
[10] = test sample concentration 4 μg/mL, incubation 48 hours, * = twice or more vs control, p<0.05

SMILES	deposition of fat droplets in the hepatocytes ([1]; 0.037 μg/kg/day)	deposition of fat droplets in the hepatocytes ([1]; 10 mg/kg/day)	swelling of hepatocytes ([1]; 10 mg/kg/day)	PPARγ ligand activity of the fraction of peak 5 ([2]; 50 μg/mL and 100 μg/mL, FIG. 9)	PPARγ ligand activity of peak fractions ([2]; final concentration 100 μg/mL, FIG. 7)	expression level of UCP-1 (mRNA) relative to control substance (DMSO) [3]	PPARγ ligand activity, ratio (%) of the activity of each synthesized product to the activity of the control substance (DMSO) [2, 4] [%]	PPARγ ligand activity, ratio (%) of the activity of each synthesized product to the activity of the control substance (DMSO) [2, 5] [%]	PPARγ ligand activity, ratio (%) of the activity of each synthesized product to the activity of the control substance (DMSO) [2, 6] [%]	PPARγ ligand activity, ratio (%) of the activity of each synthesized product to the activity of the control substance (DMSO) [2, 7] [%]	PPARγ ligand activity, ratio (%) of the activity of each synthesized product to the activity of the control substance (DMSO) [2, 8]	PPARγ ligand activity, ratio (%) of the activity of each synthesized product to the activity of the control substance (DMSO) [2, 9]	PPARγ ligand activity, ratio (%) of the activity of each synthesized product to the activity of the control substance (DMSO) [2, 10]	PPARγ ligand activity, ratio (%) of the activity of each synthesized product to the activity of the control substance (DMSO) ([2]; test sample concentration 10 μg/mL, incubation 48 hours, * = twice or more vs control, p<0.05)	PPARγ ligand activity, ratio (%) of the activity of each synthesized product to the activity of the control substance (DMSO) ([2]; test sample concentration 20 μg/mL, incubation 48 hours, * = twice or more vs control, p<0.05)	PPARγ ligand activity of butenolide compounds (in words) ([2]; Example 8, incubation 48 hours, Table 1 and FIG. 13, listed as 5-hydroxy-4-(4-methylphenyl)butenolide)
CN(CCOc1ccc(CC2SC(=O)NC2=O)cc1)c1ccccn1 (stereo not drawn) [rosiglitazone, reference compound]	very mild to mild depositions	moderate deposition	mildly swollen													
O=C1C=C(c2ccccc2)C(O)O1 (single isomer, unassigned) [5H4PB, 5-hydroxy-4-phenylbutenolide]				elevate in a concentration-dependent manner	distinct PPARγ ligand activity	effect of elevating the expression level of UCP-1										
Cc1ccc(CC2=CC(=O)OC2O)cc1 (stereo not drawn) [Methylbenzyl, 5-hydroxy-4-(4-methylbenzyl)butenolide]							130	110	120	130	140%	130%	240* %	340* %	520* %	
Cc1ccc(C2=CC(=O)OC2O)cc1 (stereo not drawn)							170	110	120	180	260* %	560* %	710* %			high activity in a low concentration range; also recorded: highest activity
O=C1C=C(Cc2ccccc2)C(O)O1 (stereo not drawn) [Benzyl, 5-hydroxy-4-benzylbutenolide]							120	220	110	130	170%	310* %	360* %			
